Test results: PubChem BioAssay (NCI)
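At the GI50, growth is halved. The concentration for full growth arrest is given as TGI.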

Experiments:
Assay in all cases: growth of human tumour cells (NCI), 384-well format
SK-MEL-5 melanoma = system: SK-MEL-5 melanoma
BT-549 breast = system: BT-549 breast
SNB-75 CNS = system: SNB-75 CNS
HL-60(TB) leukemia = system: HL-60(TB) leukemia
SF-268 CNS = system: SF-268 CNS
SK-MEL-28 melanoma = system: SK-MEL-28 melanoma
OVCAR-3 ovarian = system: OVCAR-3 ovarian
MCF7 breast = system: MCF7 breast
HOP-62 NSCLC = system: HOP-62 NSCLC
SK-OV-3 ovarian = system: SK-OV-3 ovarian
HCT-15 colon = system: HCT-15 colon
HCC-2998 colon = system: HCC-2998 colon
MDA-MB-231 breast = system: MDA-MB-231 breast
786-0 renal = system: 786-0 renal
OVCAR-8 ovarian = system: OVCAR-8 ovarian
T-47D breast = system: T-47D breast
MOLT-4 leukemia = system: MOLT-4 leukemia
NCI-H322M lung = system: NCI-H322M lung
LOX IMVI melanoma = system: LOX IMVI melanoma
OVCAR-4 ovarian = system: OVCAR-4 ovarian
A498 renal = system: A498 renal
NCI-H226 lung = system: NCI-H226 lung
MDA-MB-435 melanoma = system: MDA-MB-435 melanoma
SN12C renal = system: SN12C renal
CCRF-CEM leukemia = system: CCRF-CEM leukemia
KM12 colon = system: KM12 colon
PC-3 prostate = system: PC-3 prostate
COLO 205 colon = system: COLO 205 colon
DU-145 prostate = system: DU-145 prostate
HS 578T breast = system: HS 578T breast
IGROV1 ovarian = system: IGROV1 ovarian
HCT-116 colon = system: HCT-116 colon
U251 glioblastoma = system: U251 glioblastoma
UACC-257 melanoma = system: UACC-257 melanoma
MDA-MB-468 breast = system: MDA-MB-468 breast
NCI/ADR-RES ovarian = system: NCI/ADR-RES ovarian
SR leukemia = system: SR leukemia
RXF 393 renal = system: RXF 393 renal
NCI-H23 lung = system: NCI-H23 lung
NCI-H460 NSCLC = system: NCI-H460 NSCLC
SF-539 CNS = system: SF-539 CNS
SW-620 colon = system: SW-620 colon
SF-295 CNS = system: SF-295 CNS
OVCAR-5 ovarian = system: OVCAR-5 ovarian
ACHN renal = system: ACHN renal
MALME-3M melanoma = system: MALME-3M melanoma
TK-10 renal = system: TK-10 renal
A549 NSCLC = system: A549 NSCLC
SK-MEL-2 melanoma = system: SK-MEL-2 melanoma
UACC-62 melanoma = system: UACC-62 melanoma
NCI-H522 lung = system: NCI-H522 lung
SNB-19 CNS = system: SNB-19 CNS
CAKI-1 renal = system: CAKI-1 renal
M14 melanoma = system: M14 melanoma
EKVX NSCLC = system: EKVX NSCLC
HT29 colon = system: HT29 colon
K-562 leukemia = system: K-562 leukemia
RPMI-8226 leukemia = system: RPMI-8226 leukemia

Cc1[nH]ncc1-c1cc2nc(C3CC4CCN3CC4)[nH]c(=O)c2s1 (stereo not given)
GI50 (SK-MEL-5 melanoma): 2.18 µM | TGI (SK-MEL-5 melanoma): 7.13 µM | GI50 (BT-549 breast): 1.85 µM | TGI (BT-549 breast): 6.54 µM | GI50 (SNB-75 CNS): 2.06 µM | TGI (SNB-75 CNS): 7.46 µM | GI50 (HL-60(TB) leukemia): 0.562 µM | TGI (HL-60(TB) leukemia): 1.8 µM | GI50 (SF-268 CNS): 1.42 µM | TGI (SF-268 CNS): 4.23 µM | GI50 (SK-MEL-28 melanoma): 6.67 µM | TGI (SK-MEL-28 melanoma): 23.2 µM | GI50 (OVCAR-3 ovarian): 2.93 µM | TGI (OVCAR-3 ovarian): 18.3 µM | GI50 (MCF7 breast): 3.55 µM | TGI (MCF7 breast): > 100 µM | GI50 (HOP-62 NSCLC): 2.31 µM | TGI (HOP-62 NSCLC): 16.1 µM | GI50 (SK-OV-3 ovarian): 17.8 µM | TGI (SK-OV-3 ovarian): > 100 µM | GI50 (HCT-15 colon): 2.74 µM | TGI (HCT-15 colon): > 100 µM | GI50 (HCC-2998 colon): 3.48 µM | TGI (HCC-2998 colon): 24.2 µM | GI50 (MDA-MB-231 breast): 7.14 µM | TGI (MDA-MB-231 breast): > 100 µM | GI50 ([…]-0 renal): 2.75 µM | TGI (786-0 renal): 55.1 µM | GI50 (OVCAR-8 ovarian): 8.87 µM | TGI (OVCAR-8 ovarian): > 100 µM | GI50 (T-47D breast): 24.9 µM | TGI (T-47D breast): > 100 µM | GI50 (MOLT-4 leukemia): 1.14 µM | TGI (MOLT-4 leukemia): 11.3 µM | GI50 (NCI-H322M lung): 6.94 µM | TGI (NCI-H322M lung): 34.3 µM | GI50 (LOX IMVI melanoma): 0.888 µM | TGI (LOX IMVI melanoma): 14.6 µM | GI50 (OVCAR-4 ovarian): 21.4 µM | TGI (OVCAR-4 ovarian): 74.9 µM | GI50 (A498 renal): 0.0828 µM | TGI (A498 renal): 70.7 µM | GI50 (NCI-H226 lung): 2.53 µM | TGI (NCI-H226 lung): 15.9 µM | GI50 (MDA-MB-435 melanoma): 9.26 µM | TGI (MDA-MB-435 melanoma): 28 µM | GI50 (SN12C renal): 1.78 µM | TGI (SN12C renal): 17.9 µM | GI50 (CCRF-CEM leukemia): 0.138 µM | TGI (CCRF-CEM leukemia): 0.905 µM | GI50 (KM12 colon): 3.22 µM | TGI (KM12 colon): 25.7 µM | GI50 (PC-3 prostate): 8.96 µM | TGI (PC-3 prostate): > 100 µM | GI50 (COLO 205 colon): 0.0396 µM | TGI (COLO 205 colon): 0.198 µM | GI50 (DU-145 prostate): 0.876 µM | TGI (DU-145 prostate): > 100 µM | GI50 (HS 578T breast): 1.48 µM | TGI (HS 578T breast): 3.32 µM | GI50 (IGROV1 ovarian): 3.76 µM | TGI (IGROV1 ovarian): > 51.1 µM | GI50 (HCT-116 colon): 2.16 µM | TGI (HCT-116 colon): > 100 µM | GI50 (U251 glioblastoma): 1.38 µM | TGI (U251 glioblastoma): 74.2 µM | GI50 (UACC-257 melanoma): 15.2 µM | TGI (UACC-257 melanoma): 43.8 µM | GI50 (MDA-MB-468 breast): 1.17 µM | TGI (MDA-MB-468 breast): 20.9 µM | GI50 (NCI/ADR-RES ovarian): 16.2 µM | TGI (NCI/ADR-RES ovarian): 65.8 µM | GI50 (SR leukemia): 0.178 µM | TGI (SR leukemia): 0.366 µM | GI50 (RXF 393 renal): 2.27 µM | TGI (RXF 393 renal): 7.19 µM | GI50 (NCI-H23 lung): 1.36 µM | TGI (NCI-H23 lung): 6.79 µM | GI50 (NCI-H460 NSCLC): 1.19 µM | TGI (NCI-H460 NSCLC): 5.55 µM | GI50 (SF-539 CNS): 1.31 µM | TGI (SF-539 CNS): 7.72 µM | GI50 (SW-620 colon): 0.333 µM | GI50 (SF-295 CNS): 1.19 µM | TGI (SF-295 CNS): 49.4 µM | GI50 (OVCAR-5 ovarian): 4.24 µM | TGI (OVCAR-5 ovarian): > 100 µM | GI50 (ACHN renal): 1.96 µM | TGI (ACHN renal): > 100 µM | GI50 (MALME-3M melanoma): 11.1 µM | TGI (MALME-3M melanoma): 29.7 µM | GI50 (TK-10 renal): 9.31 µM | TGI (TK-10 renal): > 79.3 µM | GI50 (A549 NSCLC): 2.86 µM | TGI (A549 NSCLC): > 100 µM | GI50 (SK-MEL-2 melanoma): 6.55 µM | TGI (SK-MEL-2 melanoma): 18.4 µM | GI50 (UACC-62 melanoma): 2.88 µM | TGI (UACC-62 melanoma): 15.5 µM | GI50 (NCI-H522 lung): 0.381 µM | TGI (NCI-H522 lung): 7.5 µM | GI50 (SNB-19 CNS): 9.66 µM | TGI (SNB-19 CNS): > 100 µM | GI50 (CAKI-1 renal): 1.56 µM | TGI (CAKI-1 renal): > 100 µM | GI50 (M14 melanoma): 5.7 µM | TGI (M14 melanoma): 19.4 µM | GI50 (EKVX NSCLC): 5.93 µM | TGI (EKVX NSCLC): 42.9 µM | GI50 (HT29 colon): 14.4 µM | TGI (HT29 colon): > 100 µM | GI50 (K-562 leukemia): 5.24 µM | TGI (K-562 leukemia): > 100 µM | GI50 (RPMI-8226 leukemia): 10.3 µM | TGI (RPMI-8226 leukemia): 22 µM
